Like-named read-outs stand apart in the source and are kept apart here.
Assays:
5HT1A receptor = target: T1, 5HT1A receptor (Rattus norvegicus, UniProt P19327); test: 5HT1A receptor competition binding assay, [3H]-8-OH-DPAT, rat hippocampus
T1 construct: hippocampal homogenates that were prepared from Sprague Dawley rat hippocampus; from tissue; host or cells: rat (Sprague-Dawley) hippocampus membranes
T1 sequence (P19327 1-422): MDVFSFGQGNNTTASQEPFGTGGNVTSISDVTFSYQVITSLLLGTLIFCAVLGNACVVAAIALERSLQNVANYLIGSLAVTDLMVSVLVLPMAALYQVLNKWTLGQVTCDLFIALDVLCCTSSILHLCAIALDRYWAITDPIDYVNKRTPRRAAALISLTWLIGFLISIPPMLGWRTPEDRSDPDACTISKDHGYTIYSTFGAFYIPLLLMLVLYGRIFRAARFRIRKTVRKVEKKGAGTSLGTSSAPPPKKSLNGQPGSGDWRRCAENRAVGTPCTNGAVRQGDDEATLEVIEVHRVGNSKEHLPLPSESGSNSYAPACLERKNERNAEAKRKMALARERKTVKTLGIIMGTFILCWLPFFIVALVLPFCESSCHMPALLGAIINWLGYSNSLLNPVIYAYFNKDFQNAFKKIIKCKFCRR
Procedure: The in vitro 5HT1A binding affinities of rhenium coordinated complexes were determined in a competition assay using rat hippocampus and high-affinity 5HT1A-ligand [^3H]-8-OH-DPAT (135 Ci/mmol, NEN Life Science Inc., Cambridge, Mass.). See, Brain Res. 1995, 673, 217-225.
Male Sprague-Dawley rats (weighing 150-170 g) were sacrificed using anesthesia agent isoflurane. The brains were rapidly removed, and hippocampus, frontal cortex, hypothalamus, and striatum were hand-dissected on ice and stored at −70° C. Tissue was thawed at room temperature and homogenized using a Brinkmann Polytron tissue disrupter in 50 volumes (wt/vol) of ice-cold 50 mM Tris-HCl buffer (pH 7.4). The suspension was centrifuged twice at 27,000 g for 20 min at 4° C. The membrane pellets were resuspended in 50 volumes of (wt/vol) Tris-HCl buffer and incubated at 37° C. for 20 min in a water bath, before a final centrifugation step (27,000 g; 20 min; 4° C.). The final tissue pellets were stored at −70° C. until assayed.
Twelve concentrations of the nonradioactive rhenium complexes ranging from 1×10^−11 to 1×10^−4 and protein samples (0.15 mg of membrane protein) were incubated with 1.5 nM [^3H]-8-OH-DPAT in a total volume of 0.25 mL of Tris-HCl (50 mM, pH 7.4, 10 mM MgSO4). Incubations were carried out for 60 min at 25° C. All assays were terminated by dilution with 5 mL of ice-cold Tris-HCl (10 mM), pH 7.4, and solution were filtered through glass-fiber filters (Whatman GF/F; presoaked in 0.5% polyethyleneimine for 30 min at 25° C.). Filters were then washed three times with 5 mL of ice-cold Tris-HCl (50 mM, pH 7.4), and counted in Hionic-Fluor cocktail (Packard, Groningen, the Netherlands). The corresponding IC50 values were determined with Origin 6.0 software (OriginLab, Northampton, Mass.) and were used for the calculation of the apparent Ki values with the Cheng-Prusoff equation. See, Biochem. Pharmacol. 1973, 22, 3099-3108.
Rhenium complexes were synthesized by the reaction of [ReBr(CO)3(C4H8O)]2 with the final ligands in acetonitrile at room temperature. The in vitro 5-HT1A binding affinities of complexes Re(CO)3-L1-L9 were determined in competitive receptor binding assay using hippocampal homogenates that were prepared from Sprague Dawley rat hippocampus and the high-affinity [^3H]-8-OH-DPAT as the 5HT1A specific ligand.
The in vitro affinity of Re(CO)3-L complexes for the 5-HT1A receptors were assessed by their ability to compete with the high affinity 5HT1A radioligand [^3H]-8-OH-DPAT.

σ2 receptor = target: T2, σ2 receptor (Rattus norvegicus, UniProt Q5U3Y7); test: σ2 receptor competition binding assay, [3H]-DTG, rat liver membranes
T2 construct: Rat liver membranes were prepared from male Sprague-Dawley rat livers as previously described; from tissue; host or cells: rat (Sprague-Dawley) liver membranes
T2 sequence (Q5U3Y7 1-176): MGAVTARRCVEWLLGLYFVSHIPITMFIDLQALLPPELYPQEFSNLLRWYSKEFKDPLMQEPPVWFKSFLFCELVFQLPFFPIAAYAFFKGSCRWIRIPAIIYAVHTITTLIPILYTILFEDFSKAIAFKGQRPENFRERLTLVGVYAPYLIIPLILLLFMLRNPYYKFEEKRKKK
Procedure: Rat liver membranes were prepared from male Sprague-Dawley rat livers as previously described (Eur. J. Pharmacol.-Mol. Pharmacol. Sect. 1994, 268, 9-18). The in vitro σ2 receptor binding affinities of rhenium coordinated complexes were determined in a competition assay using rat livers and [^3H]-DTG (31 Ci/mmol, NEN Life Science Inc., Cambridge, Mass.) as radioligand in the presence of 10 μM 1-pyrrolidinylethyl 3,4-dichlorophenylacetate oxalate (ACT915 oxalate) to mask σ1 receptors (Bioorg. & Med. Chem. Lett. 2000, 10, 17-18). Competition assays were performed with twelve concentrations of the nonradioactive rhenium complexes ranging from […] to 1×10^−3 and protein samples (0.15 mg of membrane protein) in a total volume of 0.25 mL of Tris-HCl (50 mM, pH 8.0) for 120 min at 25° C. All other manipulations and data analysis were performed as described vide supra for the σ1—receptor assays.

σ1 receptor = target: T3, σ1 receptor (Cavia porcellus, UniProt Q60492); test: σ1 receptor competition binding assay, [3H]-(+)-pentazocine; set-up: species or system guinea pig
T3 construct: The membranes were prepared from guinea pig brain (minus cerebellum) as described above; from tissue; host or cells: guinea pig brain (minus cerebellum) membranes
Procedure: […] See, Mol. Neuropharmacol. 1993, 3, 117-126.
The membranes were prepared from guinea pig brain (minus cerebellum) as described above and stored at −70° C. Twelve concentrations of the nonradioactive rhenium complexes ranging from 1×10^−11 to 1×10^−3 and protein samples (0.15 mg of membrane protein) were incubated with 5 nM [^3H]-(+)-pentazocine in a total volume of 0.25 mL of Tris-HCl (50 mM, pH 8.0). Incubations were carried out for 120 min at 25° C. All assays were terminated by dilution with 5 mL of ice-cold Tris-HCl (10 mM), pH 8.0, and solution were filtered through glass-fiber filters (Whatman GF/F; presoaked in 0.5% polyethyleneimine for 30 min at 25° C.). Filters were then washed three times with 5 mL of ice-cold Tris-HCl (50 mM, pH 8.0), and counted in Hionic-Fluor cocktail (Packard, Groningen, the Netherlands). The corresponding IC50 values were determined with Origin 6.0 software (OriginLab, Northampton, Mass.) and were used for the calculation of the apparent Ki values with the Cheng-Prusoff equation. See, Biochem. Pharmacol. 1973, 22, 3099-3108.

B16 melanoma nodules = test: In vivo biodistribution and tumor uptake of 99mTc complexes in C57B16 mice with B16 melanoma nodules; details: for mel/blood: melanoma/blood ratio; for mel/liver: melanoma/liver ratio; for mel/lung: melanoma/lung ratio; for mel/spleen: melanoma/spleen ratio
Procedure: The biodistribution data including melanoma/nontumor (M/NT) ratios for selected organs, summarized in Table 1 as percentage injected dose per gram (% ID/g)
To study the tumor uptake of radiolabeled metal complexes, in vivo, biodistribution experiments at 1 h after their administration were carried out in C57B16 male mice with palpable B16 melanoma nodules.

[1] = quantity not named in table head, methods calculate apparent Ki (Cheng-Prusoff), read-out: 5HT1A
[2] = quantity not named in table head, methods calculate apparent Ki (Cheng-Prusoff), read-out: σ-2
[3] = quantity not named in table head, methods calculate apparent Ki (Cheng-Prusoff), read-out: σ-1

T3 sequence (Q60492 whole entry): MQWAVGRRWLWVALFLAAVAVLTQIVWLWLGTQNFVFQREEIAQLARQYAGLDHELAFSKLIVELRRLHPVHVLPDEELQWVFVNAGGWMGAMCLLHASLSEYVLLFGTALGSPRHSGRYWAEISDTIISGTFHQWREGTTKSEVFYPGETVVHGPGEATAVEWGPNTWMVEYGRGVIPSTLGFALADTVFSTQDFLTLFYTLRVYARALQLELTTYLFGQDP

## COc1ccccc1C1CCN(CCCCCC[N+]23CC[NH2+][Re-2]2(=[C]=O)(=[C]=O)(=[C]=O)[O]c2ccccc2C3)CC1 (stereo not drawn) [Re-L17a]
5HT1A receptor; [1]
  Ki: 48 ± 5 nM

## COc1cc2c(cc1OC)CN(CCCCCC[N+]13Cc4ccccc4[O][Re-2]1(=[C]=O)(=[C]=O)(=[C]=O)[n+]1ccccc1C3)CC2 (stereo not drawn) [Re-L12]
σ2 receptor; [2]
  Ki: 3.37 nM
σ1 receptor; [3]
  Ki: 4400 ± 280 nM
5HT1A receptor; [1]
  Ki: 940 ± 216 nM

## COc1ccccc1N1CCN(CCC[N+]23Cc4ccccc4[O][Re-5]2([C]#[O+])([C]#[O+])([C]#[O+])[n+]2ccccc2C3)CC1 (stereo not drawn) [Re-L1]
5HT1A receptor; Example 62, Re(CO)3-L complexes, [3H]-8-OH-DPAT, rat hippocampal homogenates, read-out: Ki, 5-HT1A receptor affinity
  Ki: 83.2 ± 2.2 nM

## COc1cc2c(cc1OC)CN(CCCCCC[N+]13Cc4ccccc4[O][Re-2]1(=[C]=O)(=[C]=O)(=[C]=O)[n+]1ccccc1C3)C2 (stereo not drawn) [Re-L13]
σ2 receptor; [2]
  Ki: 35.6 ± 2.83 nM
σ1 receptor; [3]
  Ki: 5310 ± 973 nM

## O=C1C[S][Re-]23(=[O])[S]CC[N+]2(CCCCCCCN2CCC(c4ccccc4)CC2)CC[N]13 (stereo not drawn) [Re-33]
σ2 receptor
  Ki: 188 ± 18.8 nM
σ1 receptor
  Ki: 22.9 ± 1.78 nM

## O=C1C[N+]2(CCCCCCCN3CCC(c4ccccc4)CC3)CC[S][Re-]23(=[O])[S]CC[N]13 (stereo not drawn) [Re-41]
σ2 receptor
  Ki: 21.25 ± 0.19 nM
σ1 receptor
  Ki: 7.6 ± 0.67 nM

## COc1ccccc1C1CCN(CCCCCC[N+]23CC[N+](C)(C)[Re-2]2(=[C]=O)(=[C]=O)(=[C]=O)[O]c2ccccc2C3)CC1 (stereo not drawn) [Re-L17b]
5HT1A receptor; [1]
  Ki: 18 ± 8 nM

## O=[C]=[Re-2]12(=[C]=O)(=[C]=O)[NH2+]CC[N+]1(CCCCCCN1CCC(c3ccccc3)CC1)Cc1ccccc1[O]2 (stereo not drawn) [Re-L16a]
σ2 receptor; [2]
  Ki: 223 ± 8.78 nM
σ1 receptor; [3]
  Ki: 39.3 ± 1.43 nM
5HT1A receptor; [1]
  Ki: 629 ± 12 nM

## COc1cc2c(cc1OC)CN(CCCCCCN1CC[S][Re]3(=[O])[S]CC[N]3C(=O)C1)C2 (stereo not drawn) [Re-43]
σ2 receptor; [2]
  Ki: 11.5 ± 0.2 nM
σ1 receptor; [3]
  Ki: 1480 ± 227 nM

## O=C1C[S][Re-]23(=[O])[S]CC[N+]2(CCCCCCN2CCC(c4ccccc4)CC2)CC[N]13 (stereo not drawn) [Re-32]
σ2 receptor; [2]
  Ki: 223 ± 6.54 nM
σ1 receptor; [3]
  Ki: 29.7 ± 4.31 nM

## COc1cc2c(cc1OC)CN(CCCCCCN1CC[S][Re]3(=[O])[S]CC[N]3C(=O)C1)CC2 (stereo not drawn) [Re-42]
σ2 receptor; [2]
  Ki: 12.1 ± 0.61 nM
σ1 receptor; [3]
  Ki: 672 ± 17.6 nM

## COc1ccccc1C1CCN(CCCCCC[N+]23Cc4ccccc4[O][Re-2]2(=[C]=O)(=[C]=O)(=[C]=O)[n+]2ccccc2C3)CC1 (stereo not drawn) [Re-L11]
5HT1A receptor; [1]
  Ki: 120 ± 21 nM

## O=C1CN(CCCCCCN2Cc3ccccc3C2)CC[S][Re]2(=[O])[S]CC[N]12 (stereo not drawn) [Re-44]
σ2 receptor; [2]
  Ki: 61 ± 3.91 nM
σ1 receptor; [3]
  Ki: 64 ± 5.9 nM

## CCCN(CCCCCCN1CC[S][Re]2(=[O])[S]CC[N]2C(=O)C1)C1CCc2cccc(O)c2C1 (stereo not drawn) [Re-45-HO]
5HT1A receptor; [1]
  Ki: 0.42 ± 0.08 nM

## CCN(CC)CC[N+]12CC[S][99Tc-]13(=[O])[S]CC[N]3C(=O)C2 (stereo not drawn) [[TcOAADT]-C2—N(Et)2, [^99mTcOAADT]-(CH2)2—N(Et2), reference compound]
B16 melanoma nodules; 1 h postinjection
  blood: 1.00 ± 0.46 % ID/g
  brain: 0.30 ± 0.10 % ID/g
  heart: 0.82 ± 0.37 % ID/g
  kidney: 5.53 ± 0.81 % ID/g
  liver: 12.7 ± 1.54 % ID/g
  lung: 1.40 ± 0.49 % ID/g
  melanoma (tumor uptake): 7.62 ± 0.62 % ID/g
  muscle: 0.35 ± 0.21 % ID/g
  spleen: 1.83 ± 0.55 % ID/g
  mel/blood: 7.6 ± 0.54
  mel/liver: 0.6 ± 0.09
  mel/lung: 5.4 ± 0.60
  mel/spleen: 4.2 ± 0.58
B16 melanoma nodules; 6 h postinjection
  blood: 0.32 ± 0.19 % ID/g
  brain: 0.05 ± 0.02 % ID/g
  heart: 0.11 ± 0.02 % ID/g
  kidney: 1.98 ± 0.21 % ID/g
  liver: 4.08 ± 0.92 % ID/g
  lung: 0.47 ± 0.21 % ID/g
  melanoma (tumor uptake): 3.45 ± 1.2 % ID/g
  muscle: 0.08 ± 0.01 % ID/g
  spleen: 0.34 ± 0.10 % ID/g
  mel/blood: 10.8 ± 1.00
  mel/liver: 0.9 ± 0.35
  mel/lung: 7.3 ± 0.98
  mel/spleen: 10.1 ± 1.11
B16 melanoma nodules; over time
  tumor uptake and retention (in words): significant washout from the tumor over time

## CCCN(CCCN1CC[S][Re]2(=[O])[S]CC[N]2C(=O)C1)C1CCc2c(O)cccc2C1 (stereo not drawn) [Re-46 HO]
5HT1A receptor; [1]
  Ki: 81.4 ± 5.24 nM

## CCCN(CCCN1CC[S][Re]2(=[O])[S]CC[N]2C(=O)C1)C1CCc2c(cccc2OC)C1 (stereo not drawn) [Re-46]
5HT1A receptor; [1]
  Ki: 91.3 ± 4.1 nM

## CCCN(CCCCCCN1CC[S][Re]2(=[O])[S]CC[N]2C(=O)C1)C1CCc2c(O)cccc2C1 (stereo not drawn) [Re-47 HO]
5HT1A receptor; [1]
  Ki: 26 ± 2.71 nM

## O=C1CN(CCCCCCN2CCC(c3ccccc3)CC2)CC[S][Re]2(=[O])[S]CC[N]12 (stereo not drawn) [Re-40]
σ2 receptor; [2]
  Ki: 43.4 ± 0.99 nM
σ1 receptor; [3]
  Ki: 30 ± 6.3 nM
